Six compounds from the NIST ThermoML archive (doi:10.1021/acs.jced.9b00441) can be followed below.

Structures are written as SMILES. Numbers after ± are expanded uncertainties.

For series [1] the following is noted: Liquid; for mass density: 101.33 kPa, Vibrating tube method; for vapor or sublimation pressure: Closed cell (Static) method.
The nature of series [2]: refractive index (Na D-line) (dimensionless). Conditions: 101.33 kPa, Liquid, Standard Abbe refractometry.

Broadly, the mass density is mass per unit of volume. A word on the refractive index: it is the speed of light in vacuum divided by its phase velocity in the sample. In the case of `OCC(F)(F)C(F)(F)C(F)(F)F` [2,2,3,3,4,4,4-heptafluorobutanol], the mass density in series [1] (293.15 K) turned out to be 1580 ± 2 kg/m3. Also, in series [2] (293.15 K), the refractive index is reported as 1.264 ± 0.001.

As to `CC1CCCO1` (stereo not given) [2-methyltetrahydrofuran], in series [1] (293.15 K), the mass density is 855 ± 1 kg/m3. Moreover, the refractive index in series [2] (294.15 K) came to 1.405 ± 0.001.

In the case of `C1CCCCC1` [cyclohexane], the mass density in series [1] (298.15 K) is 775 ± 1 kg/m3. The refractive index in series [2] (293.15 K) is 1.423 ± 0.001.

In general, vapor or sublimation pressure refers to the equilibrium pressure above the liquid or solid. On to `FC(F)=C(F)C(F)(F)F` [hexafluoropropene], for which the “vapor or sublimation pressure” value in series [1] (302.94 K) is 838 ± 7 kPa; in series [1] (312.91 K), 1094 ± 7 kPa; in series [1] (322.94 K), 1407 ± 8 kPa; in series [1] (332.94 K) it was 1783 ± 8 kPa; in series [1] (342.92 K) it was 2225 ± 8 kPa.

In the case of `CCCCCC` [hexane], in series [1] (298.15 K), the mass density worked out at 654 ± 1 kg/m3. Moreover, in series [2] (298.15 K), the refractive index came out at 1.375 ± 0.001.

For the compound `CC1CCCCC1` [methylcyclohexane], the mass density in series [1] (293.15 K) came out at 769 ± 1 kg/m3. Moreover, the refractive index in series [2] (293.15 K) amounted to 1.423 ± 0.001.
